# Reference: ChEMBL document CHEMBL1201862, “PubChem BioAssay data set” (2004)
# Active and inactive are the calls of the source.
# Assays:
# cells [1] = assay: cells
# [2] = target: T1, RNA-binding protein pos-1 (Caenorhabditis elegans, UniProt G5EF15); assay: inhibitors of POS-1/mex-3 RNA binding, dose response, biochemical, fluorescence polarization (AID 1964);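 further: purified POS-1 fused to maltose binding protein made in E. coli; potency of compounds blocking POS-1 binding to fluorescent RNA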
# T1 sequence (G5EF15 whole entry): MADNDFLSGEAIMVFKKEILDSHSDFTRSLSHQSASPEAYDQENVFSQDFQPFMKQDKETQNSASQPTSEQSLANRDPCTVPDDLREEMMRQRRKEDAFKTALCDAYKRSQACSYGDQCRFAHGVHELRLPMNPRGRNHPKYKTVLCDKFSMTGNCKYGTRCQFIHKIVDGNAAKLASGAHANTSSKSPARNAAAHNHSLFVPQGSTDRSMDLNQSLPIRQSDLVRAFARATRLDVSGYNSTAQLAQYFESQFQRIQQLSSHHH
# [3] = target: T2, Zinc finger protein mex-5 (Caenorhabditis elegans, UniProt Q9XUB2); assay: MEX-5/TCR-2 RNA interaction inhibitors, dose response, biochemical, C. elegans, fluorescence polarization (AID 1960)
# T2 sequence (Q9XUB2 whole entry): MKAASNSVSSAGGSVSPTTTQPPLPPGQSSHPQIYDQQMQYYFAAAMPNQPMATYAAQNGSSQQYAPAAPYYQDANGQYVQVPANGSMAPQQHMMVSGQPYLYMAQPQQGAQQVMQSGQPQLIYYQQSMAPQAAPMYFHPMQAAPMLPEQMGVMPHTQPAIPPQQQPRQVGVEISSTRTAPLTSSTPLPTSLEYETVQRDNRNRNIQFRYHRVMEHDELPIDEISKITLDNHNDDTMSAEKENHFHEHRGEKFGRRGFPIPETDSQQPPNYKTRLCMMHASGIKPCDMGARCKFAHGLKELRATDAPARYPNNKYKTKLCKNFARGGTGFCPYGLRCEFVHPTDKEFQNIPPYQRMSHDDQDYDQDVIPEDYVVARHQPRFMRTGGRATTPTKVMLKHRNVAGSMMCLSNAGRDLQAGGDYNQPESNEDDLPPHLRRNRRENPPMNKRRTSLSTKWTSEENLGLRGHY
# [4] = human group III sPLA2 inhibitors, dose response, biochemical, QFRET, IC50 (AID 743457);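 further: green fluorescence rise as the enzyme cleaves BODIPY PC-A2 in liposomes; potency for inhibition of the enzyme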
# [5] = Luminescence Cell-Based Dose Response HTS to Identify Activators of Luciferase Translation or Activity in H4 […] Cells. [Related pubchem assays: 1829 (Project Summary), 1814 (Primary HTS)]; assay type: functional
# H4 = assay: Luminescence Cell-Based Dose Response HTS to Identify Activators of 5'UTR Stem-Loop Driven Prion Protein mRNA Translation in H4 Neuroglioblastoma Cells. [Related pubchem assays: 1829 (Project Summary), 1814 (Primary HTS)]; assay type: functional; conditions: Homo sapiens
# [6] = Counterscreen for antagonists of the human trace amine associated receptor 1 (hTAAR1): Fluorescence-based cell-based high throughput dose response assay to identify nonselective Ga16 antagonists.; assay type: functional
# [7] = target: T3, Trace amine-associated receptor 1 (Homo sapiens, UniProt Q96RJ0); assay: Counterscreen for antagonists of the human trace amine associated receptor 1 (hTAAR1): Fluorescence-based cell-based high throughput dose response assay to identify TAAR1 Agonists.; assay type: functional
# T3 sequence (Q96RJ0 whole entry): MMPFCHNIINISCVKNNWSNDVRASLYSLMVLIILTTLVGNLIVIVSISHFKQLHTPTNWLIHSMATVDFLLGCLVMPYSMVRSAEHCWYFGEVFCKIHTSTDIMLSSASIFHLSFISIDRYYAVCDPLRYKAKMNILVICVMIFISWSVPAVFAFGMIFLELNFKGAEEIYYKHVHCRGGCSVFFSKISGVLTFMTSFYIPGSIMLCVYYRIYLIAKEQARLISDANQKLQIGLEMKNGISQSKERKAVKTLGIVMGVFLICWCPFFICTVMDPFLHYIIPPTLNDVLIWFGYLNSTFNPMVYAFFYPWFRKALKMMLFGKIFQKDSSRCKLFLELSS
# [8] = Luminescence Cell-Based Dose Response to Identify Activators of Luciferase Translation or Activity in H4-C Neuroglioblastoma Cells. [Related pubchem assays: 1829 (Project Summary), 1814 (Primary HTS)]; assay type: functional
# [9] = Luminescence Cell-Based Dose Response to Identify Activators of 5'UTR Stem-Loop Driven Prion Protein mRNA Translation in H4-C Neuroglioblastoma Cells. [Related pubchem assays: 1829 (Project Summary), 1814 (Primary HTS)]; assay type: functional
# [10] = Counterscreen for […] of the human trace amine associated receptor 1 (TAAR1): Fluorescence-based cell-based high throughput dose response assay to identify nonselective Ga16 agonists.; assay type: functional
# [11] = Luminescence Cell-Based Dose Confirmation to Identify Activators of 5'UTR Stem-Loop Driven Alpha-Synuclein mRNA Translation in H4 Neuroglioblastoma Cells. [Related pubchem assays: 1829 (Project Summary), 1814 (Primary HTS)]; assay type: functional
# [12] = target: T3, Trace amine-associated receptor 1; assay: Fluorescence-based cell-based high throughput dose response assay to identify antagonists of the human trace amine associated receptor 1 (TAAR1).; assay type: functional
# [13] = target: 1-phosphatidylinositol 4,5-bisphosphate phosphodiesterase beta-3 (Homo sapiens, UniProt Q01970); assay: Fluorescence-based biochemical high throughput dose response assay to identify inhibitors of phospholipase C isozymes (PLC-B3).
# [14] = target: 1-phosphatidylinositol 4,5-bisphosphate phosphodiesterase gamma-1 (Homo sapiens, UniProt P19174); assay: Counterscreen for inhibitors of phospholipase C isozymes (PLC-B3): Fluorescence-based biochemical high throughput dose response assay to identify inhibitors of phospholipase C isozymes (PLC-gamma1).
# [15] = target: Glucose-6-phosphate 1-dehydrogenase (Homo sapiens, UniProt P11413); assay: human G6PD enzyme inhibitors, dose response, selectivity assay for P. falciparum G6PD inhibitor project, biochemical, fluorescence (AID 504792); assay type: functional
# [16] = ADAM10 protease inhibitors, dose response, selectivity assay for ADAM17 exosite inhibitor project, biochemical, FRET peptide substrate, recombinant human ADAM10 (AID 743259);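 further: ADAM10 enzyme cleaving a FRET peptide substrate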
# [17] = target: Disintegrin and metalloproteinase domain-containing protein 17 (Homo sapiens, UniProt P78536); assay: exosite inhibitors of ADAM17, dose response, biochemical (AID 743260)
# [18] = target: T4, DNA repair and recombination protein RAD54-like (Homo sapiens, UniProt Q92698); assay: inhibitors of human RAD54 branch migration, confirmation, biochemical, fluorescence, cherry-picked samples, dose series (AID 651657); assay type: functional
# T4 sequence (Q92698 whole entry): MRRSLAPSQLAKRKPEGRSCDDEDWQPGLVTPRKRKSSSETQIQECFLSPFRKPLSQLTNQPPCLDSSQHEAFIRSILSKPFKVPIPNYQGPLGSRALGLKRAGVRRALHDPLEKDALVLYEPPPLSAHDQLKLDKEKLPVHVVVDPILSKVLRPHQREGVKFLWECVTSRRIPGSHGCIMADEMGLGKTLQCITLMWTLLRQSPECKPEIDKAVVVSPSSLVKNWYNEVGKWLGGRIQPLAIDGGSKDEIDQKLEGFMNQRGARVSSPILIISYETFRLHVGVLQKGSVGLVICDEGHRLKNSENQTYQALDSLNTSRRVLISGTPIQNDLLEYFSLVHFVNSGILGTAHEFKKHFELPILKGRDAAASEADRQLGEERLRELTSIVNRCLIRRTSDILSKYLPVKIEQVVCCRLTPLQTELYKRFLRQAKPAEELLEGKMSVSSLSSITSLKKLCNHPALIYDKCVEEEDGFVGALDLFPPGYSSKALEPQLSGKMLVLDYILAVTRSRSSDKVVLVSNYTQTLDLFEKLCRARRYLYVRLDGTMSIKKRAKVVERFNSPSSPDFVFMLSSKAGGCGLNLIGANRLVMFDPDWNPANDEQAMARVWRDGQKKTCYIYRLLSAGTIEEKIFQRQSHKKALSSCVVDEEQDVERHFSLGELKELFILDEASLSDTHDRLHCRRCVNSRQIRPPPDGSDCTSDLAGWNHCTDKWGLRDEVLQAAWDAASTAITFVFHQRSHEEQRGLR
# cells [19] = conditions: A549
# [20] = cytotoxicity in OVCAR8 ovarian cancer cells, dose response, PAX8 project, cell-based, plate reader, dry powder samples (AID 743197); assay type: functional; conditions: OVCAR-8
# [21] = NIH:OVCAR-3 ovarian cancer cell cytotoxicity, dose response, PAX8 inhibitor project, plate reader, dry powder samples (AID 743044); assay type: functional, cell-based
# Paired box protein Pax-8 = Paired box protein Pax-8 (Homo sapiens, UniProt Q06710); assay: inhibitors of PAX8-driven TPO luciferase reporter, dose response, RMG-I cells, cherry-pick (AID 687027); assay type: functional, cell-based;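 further: luciferase reporter driven by Pax8 target thyroperoxidase promoter measured by SteadyGlo luminescence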
# [22] = non-specific cell cytotoxicity, dose response, cytotoxicity control for PAX8 inhibitor project, plate reader, dry powder samples (AID 743021); assay type: functional, cell-based
# [23] = IGROV1 ovarian cancer cell cytotoxicity, dose response, PAX8 inhibitor project, plate reader, dry powder samples (AID 743043); assay type: functional, cell-based; conditions: IGROV-1
# [24] = IOSE-T80 ovarian epithelial cell cytotoxicity, dose response, cytotoxicity control for PAX8 inhibitor project, plate reader, dry powder samples (AID 743045); assay type: functional, cell-based
# [25] = target: Metabotropic glutamate receptor 3 (Rattus norvegicus, UniProt P31422); assay: mGlu3 NAM potency via calcium readout, dose response, mGlu3 NAM project, TREx293 cells, Galpha15, calcium flux (AID 651840); assay type: functional
# [26] = cytotoxicity in HepG2 cells, dose response, cytotoxicity control, cell-based, cherry-picked samples (AID 1053183); assay type: functional
# [27] = P. falciparum Dd2 growth inhibitors, dose response, SYBR Green, cherry-picked samples (AID 1159567); assay type: functional, cell-based
# [28] = HepG2 cell cytotoxicity, dose response, cytotoxicity control, cherry-picked samples (AID 1159577); assay type: functional, cell-based
# [29] = A549 cell cytotoxicity, dose response, cytotoxicity control, cherry-picks, 26 µM top dose (AID 1053119); assay type: functional, cell-based
# [30] = inhibitors of fibronectin matrix deposition, dose response, AH1F cells, Alexa488-FN fluorescence, cherry-picks (AID 1035475); assay type: functional, cell-based
# [31] = HEK293T cell cytotoxicity, dose response, cytotoxicity control, CellTiter-Glo luminescence, dry powder, set 6 (AID 651949); assay type: functional, cell-based; conditions: HEK293
# [32] = A Cell-Based Confirmatory Screen for Compounds that Inhibit VEEV, TC-83 (8).; assay type: functional
# [33] = A Cell-Based Confirmatory Screen for Compounds that Inhibit VEEV, TC-83 (6).; assay type: functional
# [34] = target: Potassium channel subfamily K member 3 (Homo sapiens, UniProt O14649); assay: TASK1 (KCNK3) potassium channel inhibitors, SAR follow-up, CHO cells, FluxOR thallium flux (AID 652212); assay type: functional
# [35] = target: Potassium channel subfamily K member 9 (Homo sapiens, UniProt Q9NPC2); assay: TASK3 (KCNK9) channel inhibitors, thallium flux, SAR follow-up, selectivity assay for TASK1 inhibitor project, cell-based, FluxOR thallium flux, concentration-response (AID 652211); assay type: functional;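 further: potency is for inhibitors of the channel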
# [36] = Late stage assay provider results from the probe development effort to identify inhibitors of the Plasmodium falciparum M18 Aspartyl Aminopeptidase (M18AAP): radiolabel-based cell-based dose response assay to identify compounds that inhibit P. falciparum growth in RBCs, Set 2..; assay type: functional
# Chain of Paired box protein Pax-8 (Q06710 whole entry): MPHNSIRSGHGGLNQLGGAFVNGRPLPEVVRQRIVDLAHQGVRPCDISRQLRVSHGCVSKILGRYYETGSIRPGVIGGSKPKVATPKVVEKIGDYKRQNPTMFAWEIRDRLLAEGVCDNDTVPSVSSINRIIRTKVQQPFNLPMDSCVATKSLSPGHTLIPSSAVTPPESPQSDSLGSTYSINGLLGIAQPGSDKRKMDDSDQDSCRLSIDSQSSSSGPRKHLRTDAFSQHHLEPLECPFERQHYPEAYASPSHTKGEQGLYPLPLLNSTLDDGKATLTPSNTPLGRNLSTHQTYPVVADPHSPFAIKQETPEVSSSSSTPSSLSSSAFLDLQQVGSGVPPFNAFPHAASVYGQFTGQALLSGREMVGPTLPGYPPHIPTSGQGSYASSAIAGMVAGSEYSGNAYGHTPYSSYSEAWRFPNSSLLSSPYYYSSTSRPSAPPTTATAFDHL
# Chain of Disintegrin and metalloproteinase domain-containing protein 17 (P78536 whole entry, the tested form may be a part): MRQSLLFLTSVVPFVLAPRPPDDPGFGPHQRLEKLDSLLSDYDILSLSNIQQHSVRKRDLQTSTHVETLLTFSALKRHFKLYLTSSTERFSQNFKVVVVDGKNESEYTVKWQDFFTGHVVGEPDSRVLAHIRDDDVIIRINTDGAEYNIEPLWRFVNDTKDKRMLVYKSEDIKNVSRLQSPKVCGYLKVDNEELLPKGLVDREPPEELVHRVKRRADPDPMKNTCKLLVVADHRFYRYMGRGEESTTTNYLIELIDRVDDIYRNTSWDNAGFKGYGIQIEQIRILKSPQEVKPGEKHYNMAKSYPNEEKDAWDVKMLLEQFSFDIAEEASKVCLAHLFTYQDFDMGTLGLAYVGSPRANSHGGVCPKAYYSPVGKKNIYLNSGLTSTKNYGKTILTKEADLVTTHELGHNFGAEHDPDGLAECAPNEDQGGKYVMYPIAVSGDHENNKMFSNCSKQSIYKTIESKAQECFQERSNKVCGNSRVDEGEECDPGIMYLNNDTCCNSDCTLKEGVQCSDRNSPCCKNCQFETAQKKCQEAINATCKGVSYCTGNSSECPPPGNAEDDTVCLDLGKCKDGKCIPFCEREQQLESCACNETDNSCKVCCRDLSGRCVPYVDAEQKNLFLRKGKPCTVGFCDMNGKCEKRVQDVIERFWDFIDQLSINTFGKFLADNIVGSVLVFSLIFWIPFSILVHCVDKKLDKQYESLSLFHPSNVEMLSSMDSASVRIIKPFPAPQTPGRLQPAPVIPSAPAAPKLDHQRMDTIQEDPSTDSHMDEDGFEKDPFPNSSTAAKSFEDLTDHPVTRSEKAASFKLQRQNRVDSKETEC
# Chain of 1-phosphatidylinositol 4,5-bisphosphate phosphodiesterase beta-3 (Q01970 whole entry): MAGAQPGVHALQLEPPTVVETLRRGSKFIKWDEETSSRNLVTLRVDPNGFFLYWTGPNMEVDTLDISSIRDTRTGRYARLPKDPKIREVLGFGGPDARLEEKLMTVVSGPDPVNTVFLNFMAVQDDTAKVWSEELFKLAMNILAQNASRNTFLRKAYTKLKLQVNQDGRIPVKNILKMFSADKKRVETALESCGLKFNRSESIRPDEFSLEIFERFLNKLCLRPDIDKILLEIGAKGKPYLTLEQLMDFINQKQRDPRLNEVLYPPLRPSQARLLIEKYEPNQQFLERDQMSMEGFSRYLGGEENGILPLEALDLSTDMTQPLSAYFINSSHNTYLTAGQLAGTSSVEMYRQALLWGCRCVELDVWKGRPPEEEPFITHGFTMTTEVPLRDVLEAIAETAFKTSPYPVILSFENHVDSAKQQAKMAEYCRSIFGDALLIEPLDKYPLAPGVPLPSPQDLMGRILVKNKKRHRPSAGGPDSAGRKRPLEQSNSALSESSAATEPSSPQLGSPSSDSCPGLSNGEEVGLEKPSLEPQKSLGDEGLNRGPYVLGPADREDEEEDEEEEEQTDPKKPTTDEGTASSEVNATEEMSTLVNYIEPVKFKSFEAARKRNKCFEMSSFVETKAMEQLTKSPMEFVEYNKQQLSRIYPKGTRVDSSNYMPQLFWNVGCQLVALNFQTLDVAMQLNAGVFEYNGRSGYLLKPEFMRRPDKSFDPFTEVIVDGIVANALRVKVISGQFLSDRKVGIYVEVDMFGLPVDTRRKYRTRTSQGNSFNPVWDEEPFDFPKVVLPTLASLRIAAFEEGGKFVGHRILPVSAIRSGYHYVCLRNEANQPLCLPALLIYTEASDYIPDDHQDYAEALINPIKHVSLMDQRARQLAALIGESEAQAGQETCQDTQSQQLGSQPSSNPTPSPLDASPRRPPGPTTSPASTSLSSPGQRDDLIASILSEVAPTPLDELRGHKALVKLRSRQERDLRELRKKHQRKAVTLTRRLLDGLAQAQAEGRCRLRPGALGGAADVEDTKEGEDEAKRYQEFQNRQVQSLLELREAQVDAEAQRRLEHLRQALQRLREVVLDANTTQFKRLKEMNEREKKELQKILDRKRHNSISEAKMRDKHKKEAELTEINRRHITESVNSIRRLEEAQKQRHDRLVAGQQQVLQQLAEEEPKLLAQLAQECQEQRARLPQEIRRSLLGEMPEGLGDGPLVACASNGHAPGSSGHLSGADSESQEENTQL
# Chain of 1-phosphatidylinositol 4,5-bisphosphate phosphodiesterase gamma-1 (P19174 whole entry): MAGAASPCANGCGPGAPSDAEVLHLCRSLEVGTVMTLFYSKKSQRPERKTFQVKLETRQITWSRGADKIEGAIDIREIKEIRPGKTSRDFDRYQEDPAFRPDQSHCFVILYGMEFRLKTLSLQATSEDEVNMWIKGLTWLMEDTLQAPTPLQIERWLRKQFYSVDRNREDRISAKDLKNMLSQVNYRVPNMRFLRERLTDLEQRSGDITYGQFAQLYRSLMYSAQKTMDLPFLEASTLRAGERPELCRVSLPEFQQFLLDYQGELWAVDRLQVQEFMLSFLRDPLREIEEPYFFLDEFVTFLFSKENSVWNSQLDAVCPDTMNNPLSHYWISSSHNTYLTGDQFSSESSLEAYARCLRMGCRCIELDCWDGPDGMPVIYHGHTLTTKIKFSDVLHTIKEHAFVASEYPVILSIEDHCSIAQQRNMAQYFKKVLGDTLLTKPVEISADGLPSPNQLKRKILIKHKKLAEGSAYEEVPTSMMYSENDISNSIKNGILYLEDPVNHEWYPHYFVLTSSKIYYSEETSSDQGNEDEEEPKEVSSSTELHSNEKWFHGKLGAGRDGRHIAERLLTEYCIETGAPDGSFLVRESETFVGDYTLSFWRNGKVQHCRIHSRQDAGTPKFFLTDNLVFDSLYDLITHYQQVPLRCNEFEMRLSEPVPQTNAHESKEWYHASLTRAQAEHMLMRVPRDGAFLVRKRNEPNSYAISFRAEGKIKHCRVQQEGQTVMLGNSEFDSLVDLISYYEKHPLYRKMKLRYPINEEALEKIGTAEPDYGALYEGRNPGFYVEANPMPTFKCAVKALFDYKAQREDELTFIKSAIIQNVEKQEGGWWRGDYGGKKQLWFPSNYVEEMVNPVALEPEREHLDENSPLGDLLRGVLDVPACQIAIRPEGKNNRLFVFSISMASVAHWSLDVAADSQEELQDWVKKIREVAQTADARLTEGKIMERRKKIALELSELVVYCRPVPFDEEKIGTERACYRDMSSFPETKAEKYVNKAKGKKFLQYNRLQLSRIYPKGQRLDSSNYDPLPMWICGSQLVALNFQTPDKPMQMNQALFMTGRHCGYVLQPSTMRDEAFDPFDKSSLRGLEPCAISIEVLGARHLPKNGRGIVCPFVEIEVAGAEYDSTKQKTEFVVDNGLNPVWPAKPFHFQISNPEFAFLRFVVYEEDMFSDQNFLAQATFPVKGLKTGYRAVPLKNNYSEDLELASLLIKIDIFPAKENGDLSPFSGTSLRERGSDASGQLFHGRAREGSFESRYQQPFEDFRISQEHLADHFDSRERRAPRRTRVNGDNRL
# Chain of Metabotropic glutamate receptor 3 (P31422 whole entry): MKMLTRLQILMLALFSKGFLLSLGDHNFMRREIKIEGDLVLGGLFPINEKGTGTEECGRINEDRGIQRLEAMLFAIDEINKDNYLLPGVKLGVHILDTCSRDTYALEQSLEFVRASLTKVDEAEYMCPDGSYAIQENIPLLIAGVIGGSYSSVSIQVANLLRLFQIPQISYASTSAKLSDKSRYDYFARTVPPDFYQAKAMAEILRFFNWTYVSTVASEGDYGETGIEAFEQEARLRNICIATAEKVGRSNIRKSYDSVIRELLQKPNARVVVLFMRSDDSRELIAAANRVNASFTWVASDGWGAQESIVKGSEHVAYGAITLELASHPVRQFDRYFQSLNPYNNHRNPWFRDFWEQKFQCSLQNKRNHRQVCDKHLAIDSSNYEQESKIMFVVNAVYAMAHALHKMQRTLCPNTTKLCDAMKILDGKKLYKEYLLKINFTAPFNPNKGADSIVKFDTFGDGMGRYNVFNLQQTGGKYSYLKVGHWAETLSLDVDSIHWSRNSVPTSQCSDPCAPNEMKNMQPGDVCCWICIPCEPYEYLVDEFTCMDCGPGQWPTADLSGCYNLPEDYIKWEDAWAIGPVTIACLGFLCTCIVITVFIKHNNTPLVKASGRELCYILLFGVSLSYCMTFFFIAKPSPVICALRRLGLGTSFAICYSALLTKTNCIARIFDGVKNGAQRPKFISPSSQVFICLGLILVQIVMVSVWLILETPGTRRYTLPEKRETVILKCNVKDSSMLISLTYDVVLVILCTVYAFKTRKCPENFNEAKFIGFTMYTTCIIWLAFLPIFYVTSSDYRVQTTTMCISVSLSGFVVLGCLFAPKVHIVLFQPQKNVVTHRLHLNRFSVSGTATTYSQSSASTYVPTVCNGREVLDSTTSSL
# Chain of Potassium channel subfamily K member 9 (Q9NPC2 whole entry): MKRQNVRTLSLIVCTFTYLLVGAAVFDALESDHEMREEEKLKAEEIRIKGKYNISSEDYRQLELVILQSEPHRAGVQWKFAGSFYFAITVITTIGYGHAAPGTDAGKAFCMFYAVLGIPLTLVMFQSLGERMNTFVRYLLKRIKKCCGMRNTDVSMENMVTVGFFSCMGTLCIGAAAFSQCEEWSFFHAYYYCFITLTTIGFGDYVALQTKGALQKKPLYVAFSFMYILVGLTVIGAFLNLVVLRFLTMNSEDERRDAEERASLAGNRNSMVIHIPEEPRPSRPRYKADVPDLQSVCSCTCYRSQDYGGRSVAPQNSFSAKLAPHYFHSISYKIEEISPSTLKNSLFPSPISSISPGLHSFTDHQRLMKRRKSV
structure (smiles),measurement,setting,value
CCn1c(=N)c(S(=O)(=O)c2ccccc2)cc2c(=O)n3ccccc3nc21,AC50,cells [1],1.01 µM (active)
same,EC50,[2],> 300 µM (not active)
same,EC50,[3],> 300 µM (not active)
CCCCCC(=O)NNC(=S)NC(=O)c1ccccc1[N+](=O)[O-],IC50,[4],> 122 µM (inactive)
Cc1cc(/C=C(\C#N)C(=O)NCc2cccs2)c(C)n1-c1ccccc1F,EC50,[5],< 0.1 µM (active)
same,EC50,H4,61 µM (active)
same,IC50,[6],> 29.9 µM (inactive)
same,EC50,[7],> 29.9 µM (inactive)
same,EC50,[8],0.225 µM (active)
same,EC50,[9],0.952 µM (active)
same,EC50,[10],> 29.9 µM (inactive)
same,EC50,[11],0.472 µM (active)
same,IC50,[12],3.75 µM (active)
Cn1cc(S(=O)(=O)CC(=O)N2CCc3ccccc32)c2ccccc21,IC50,[13],> 122 µM (inactive)
same,IC50,[14],> 122 µM (inactive)
same,IC50,[15],> 80 µM (inactive)
COC(=O)c1c(C)n(-c2ccc(OC)cc2)c2ccc(O)cc12,IC50,[16],> 69.5 µM (inactive)
same,IC50,[17],> 69.5 µM (inactive)
Cc1nc2ccccc2c2oc(C(=O)NCCCN3CCC(C)CC3)cc12,AC50,[18],36.5 µM (active)
same,AC50,cells [19],> 52 µM (inactive)
C[C@@H]1CN([C@H](C)CO)C(=O)c2cc(NS(=O)(=O)c3ccc(F)cc3)ccc2O[C@@H](C)CCCCO[C@@H]1CN(C)Cc1ccccc1,AC50,[20],39.4 µM (active)
same,AC50,[21],21.1 µM (active)
same,AC50,Paired box protein Pax-8,7.31 µM (active)
same,AC50,[22],2.88 µM (active)
C[C@@H]1CN([C@H](C)CO)C(=O)c2cc(NC(=O)Nc3ccccc3)ccc2O[C@@H](C)CCCCO[C@H]1CN(C)Cc1ccc(C(F)(F)F)cc1,AC50,[21],24.2 µM (active)
same,AC50,Paired box protein Pax-8,10.9 µM (active)
same,AC50,[23],36.2 µM (active)
same,AC50,[24],31.7 µM (active)
COc1ccc(C#Cc2ccc(C(=O)N3CCC[C@@H](O)C3)cc2F)cc1,IC50,[25],0.402 µM
COc1cc(CN2C[C@@H]3N[C@H](C2)[C@H]3c2ccc(-c3ccc(C#N)cc3)cc2)cc(OC)c1,AC50,[26],24.3 µM (active)
same,AC50,[27],1.33 µM (active)
same,AC50,[28],8.15 µM (active)
CC(C)(C)[S@+]([O-])N1Cc2cc(C(=O)NCc3ccccc3F)nc(-c3cccc(-c4cncnc4)c3)c2[C@@H]1CCO,AC50,[29],> 52 µM (inactive)
same,AC50,[30],50.8 µM (active)
COc1ccc(-c2nnc(SCc3ccc(Cl)cc3)o2)cc1,AC50,[31],> 52 µM (inactive)
O=c1c2cc([N+](=O)[O-])ccc2nc(CN2CCNCC2)n1-c1ccsc1,IC50,[32],1.74 µM (active)
same,IC50,[33],1.74 µM (active)
COc1ccccc1NC(=O)c1cccc(NC(=O)C2CCCCC2)c1,IC50,[34],0.086 µM (active)
same,IC50,[35],2.16 µM (active)
Oc1ccc(C2CCCN(c3ccnc4ccccc34)C2)cc1O (stereo not given),IC50,[36],4.2 µM (active)
